Laboratory results: patent US12122816B2, “Long acting peptide tyrosine tyrosine (PYY) analogs and methods of use” (Intarcia Therapeutics, Inc., priority 2020, dated 2024)
Starred links: 1 amine or outer side, 2 acyl side, 3 side chain; linkers in the order of their positions; H or OH if unused. Non-standard residues stand in square brackets, D forms with d. Residues, ends and D or L forms follow the SMILES beside them. Groups on a side chain read outwards from the residue. *: point of attachment. C20 diacid = O=C(O)CCCCCCCCCCCCCCCCCCC(=O)*; γGlu = O=C(O)[C@H](CCC(=O)[*:2])N[*:1]; NMeY = CN[C@@H](Cc1ccc(O)cc1)C(=O)O

Columns and labels:
[1] = biological target: T1, human Y2 receptor (Homo sapiens, UniProt P49146); experiment: NPY receptor functional assay (cAMP, HEK-CNG cells, ACTOne membrane potential dye); format: cell-based; settings: NPY2R pEC50, HEK-CNG cells; standard PYY(3-36); species (human or rat) not given
T1 sequence (P49146 1-381): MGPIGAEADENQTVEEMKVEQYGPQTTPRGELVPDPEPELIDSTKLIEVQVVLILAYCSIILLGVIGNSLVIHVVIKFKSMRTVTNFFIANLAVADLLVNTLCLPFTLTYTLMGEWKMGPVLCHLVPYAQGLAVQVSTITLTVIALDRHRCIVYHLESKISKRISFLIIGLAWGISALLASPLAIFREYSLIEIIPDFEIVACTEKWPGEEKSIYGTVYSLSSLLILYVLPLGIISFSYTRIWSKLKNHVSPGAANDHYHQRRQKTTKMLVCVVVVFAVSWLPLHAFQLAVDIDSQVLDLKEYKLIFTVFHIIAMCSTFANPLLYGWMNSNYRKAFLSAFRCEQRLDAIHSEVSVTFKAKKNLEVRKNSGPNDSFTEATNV
Text: (§1) The NPY family of G-protein coupled receptors include Y1, Y2, Y4, and Y5 in humans and rats. […] Following agonist binding, the receptor-G protein complex activates a downstream intracellular signaling cascade which leads to inhibition of adenylate cyclase and a reduction in intracellular cAMP levels.
(§2) HEK-CNG cells stably expressing the human or rat Y1, Y2, Y4 or Y5 receptors (Codex Biosolutions) were used to characterize the functional potency of peptide agonists using the ActOne™ membrane potential dye kit (Codex Biosolutions). In addition to each NPY receptor, each cell line encodes a proprietary exogenous Cyclic Nucleotide-Gated (CNG) channel (Codex Biosolutions). The channel is activated by elevated intracellular levels of cAMP, resulting in ion flux and cell membrane depolarization which can be detected with a calcium sensitive dye or fluorescent membrane potential (MP) dye. Cells were carried in growth media containing 90% DMEM, 10% FBS, 250 mcg/mL G418 and 1 mcg/mL puromycin for no more than 15 passages.
(§3) Prior to testing, cells were counted and dispensed at 14,000 cells per well (Y1, Y4 and Y5) or 28,000 cells per well (Y2) into black 384 well Poly-D-Lysine plates at 20 mcL per well. Covered plates were then incubated at room temperature for 30 minutes followed by an overnight incubation at 37° C. in 5% C02. The following day, media was removed and wells were washed once with 40 mcL Dulbecco's phosphate buffered saline. […] Ten microliters of experimental peptide or peptide standard was added in triplicate to wells and incubated for 50 minutes at room temperature in the dark. Following this incubation step, plates were read again as before (final read).
(§4) NPY receptor activation, leading to a reduction in intracellular cAMP levels, is detected as a decrease in isoproteranol induced fluorescent signal. Peptide standard and experimental values were initially transformed in excel using the formula: final read/initial read. Transformed values were then normalized to receptor specific standard values (1×10−13 M minimum and 1×10−7 M maximum) using the formula: (test value−standard minavg)/(standard maxavg−standard minavg)*100. […] Normalized data was analyzed from triplicate tests and used to estimate the EC50 for each test peptide on each receptor. Data was fit in GraphPad Prism software (v8.2.1) using a 3-parameter logistic curve model: Y=Bottom+(Top−Bottom)/(1+10^((LogEC50−X))). EC50 values were converted to pEC50 values using the formula: pEC50=−Log(EC50).

[2] = biological target: human Y4 receptor (Homo sapiens, UniProt P50391); experiment: as above; format: cell-based; settings: standard PP, species (human or rat) not given
Sequence of human Y4 receptor (P50391 whole entry): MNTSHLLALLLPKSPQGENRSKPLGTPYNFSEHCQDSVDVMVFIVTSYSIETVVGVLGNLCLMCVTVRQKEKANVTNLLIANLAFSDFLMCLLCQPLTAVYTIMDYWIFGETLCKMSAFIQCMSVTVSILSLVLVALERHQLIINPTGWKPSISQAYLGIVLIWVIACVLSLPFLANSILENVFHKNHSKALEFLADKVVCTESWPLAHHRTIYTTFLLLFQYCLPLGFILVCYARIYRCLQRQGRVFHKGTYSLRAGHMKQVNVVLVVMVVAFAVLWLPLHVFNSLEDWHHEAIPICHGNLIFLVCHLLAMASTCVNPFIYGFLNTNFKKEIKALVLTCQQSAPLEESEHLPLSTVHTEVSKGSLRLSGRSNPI
Text: as §1, §2, §3, §4

SMILES | EC50 [1] [nM] | NPY4R pEC50 [2]
CC(C)C[C@H](NC(=O)[C@H](Cc1ccc(O)cc1)NC(=O)[C@H](Cc1c[nH]cn1)NC(=O)[C@H](CCCNC(=N)N)NC(=O)[C@H](C)NC(=O)[C@H](CC(=O)O)NC(=O)[C@H](C)NC(=O)[C@H](Cc1ccc(O)cc1)NC(=O)[C@H](Cc1ccc(O)cc1)NC(=O)[C@H](CCCNC(=N)N)NC(=O)[C@H](CCCCNC(=O)CC[C@H](NC(=O)CC[C@H](NC(=O)CCCCCCCCCCCCCCCCCCC(=O)O)C(=O)O)C(=O)O)NC(=O)[C@H](Cc1c[nH]c2ccccc12)NC(=O)[C@H](CCC(=O)O)NC(=O)[C@H](CCC(=O)O)NC(=O)[C@@H]1CCCN1C(=O)[C@H](CO)NC(=O)[C@H](C)NC(=O)[C@H](CC(=O)O)NC(=O)[C@H](CCCCN)NC(=O)CNC(=O)[C@@H]1CCCN1C(=O)[C@H](C)NC(=O)[C@H](CCC(=O)O)NC(=O)[C@@H]1CCCN1C(=O)[C@H](CCCCN)NC(=O)[C@@H]1CCCN1)C(=O)N[C@@H](CC(N)=O)C(=O)N[C@@H](Cc1c[nH]c2ccccc12)C(=O)N[C@@H](CC(C)C)C(=O)N[C@H](C(=O)N[C@@H](CCCNC(=N)N)C(=O)N[C@@H](CCC(N)=O)C(=O)N[C@@H](CCCNC(=N)N)C(=O)N(C)[C@@H](Cc1ccc(O)cc1)C(N)=O)[C@@H](C)O [Compound A9] | 0.251 | inactive
CC(C)C[C@H](NC(=O)[C@H](Cc1ccc(O)cc1)NC(=O)[C@H](Cc1c[nH]cn1)NC(=O)[C@H](CCCNC(=N)N)NC(=O)[C@H](C)NC(=O)[C@H](CC(=O)O)NC(=O)[C@H](C)NC(=O)[C@H](Cc1ccc(O)cc1)NC(=O)[C@H](Cc1ccc(O)cc1)NC(=O)[C@H](CCCNC(=N)N)NC(=O)[C@H](CC(N)=O)NC(=O)[C@H](CC(C)C)NC(=O)[C@H](CCC(=O)O)NC(=O)[C@H](CCC(=O)O)NC(=O)[C@@H]1CCCN1C(=O)[C@H](CO)NC(=O)[C@H](C)NC(=O)[C@H](CC(=O)O)NC(=O)[C@H](CCCCN)NC(=O)[C@H](CCCCNC(=O)CC[C@H](NC(=O)CC[C@H](NC(=O)CCCCCCCCCCCCCCCCCCC(=O)O)C(=O)O)C(=O)O)NC(=O)[C@@H]1CCCN1C(=O)[C@H](C)NC(=O)[C@H](CCC(=O)O)NC(=O)[C@@H]1CCCN1C(=O)[C@H](CCCCN)NC(=O)[C@@H]1CCCN1)C(=O)N[C@@H](CC(N)=O)C(=O)N[C@@H](Cc1c[nH]c2ccccc12)C(=O)N[C@@H](CC(C)C)C(=O)N[C@H](C(=O)N[C@@H](CCCNC(=N)N)C(=O)N[C@@H](CCC(N)=O)C(=O)N[C@@H](CCCNC(=N)N)C(=O)N(C)[C@@H](Cc1ccc(O)cc1)C(N)=O)[C@@H](C)O [Compound A63] (H-PKPEAPK([γGlu-γGlu-C20 diacid])KDASPEELNRYYADARHYLNWLTRQR[NMeY]-NH2; N-terminus assumed) | 31.6 | inactive
